Results on three compounds are retold here after publication PMC3791872 (Bioscience Reports, 2013).

Structures are written as SMILES. Read-outs that look alike come from different tables or passages of the source.

Broadly, the IC50 is the concentration at which inhibition is half-maximal.

Data set [1] concerns the target SV40 large TAg (T-antigen) (Simian virus 40, UniProt P03070). The data set is described as follows: biochemical. On the set-up: species or system SV40 (simian virus 40). The note with it: DNA unwinding, 100 nM hexamer, inhibitor preincubation; […]; read-out: IC50 T-antigen.
Data set [2] concerns the target T1, Mcm467 (Saccharomyces cerevisiae, UniProt P30665+P38132+P53091).
T1 construct: made in house; host or cells: baculovirus-infected insect cells
The data set is described as follows: Steady-state ATP hydrolysis by Mcm467. It counts as biochemical. The note with it: 1 mM compound, 100 nM hexamer.

Data set [3] has as its target T1, Mcm467. The experiment in a line: Mcm467 helicase (DNA unwinding) assay. The data set is classed as biochemical. The settings on record: DNA unwinding, 100 nM hexamer, inhibitor preincubation; value (95% CI); read-out: IC50 Mcm467.
For data set [4], the system named is T2, Mcm2-7.
T2 construct: made in house; host or cells: baculovirus-infected insect cells
The data set is described as follows: Steady-state ATP hydrolysis by Mcm2-7. The data set is classed as biochemical, Saccharomyces cerevisiae. The settings on record: 1 mM compound, 100 nM hexamer.

Data set [5] has as its target T2, Mcm2-7. The experiment in a line: Mcm2-7 helicase (DNA unwinding) assay. The data set is classed as biochemical, Saccharomyces cerevisiae. The note with it: DNA unwinding, 100 nM hexamer, inhibitor preincubation; value (95% CI); read-out: IC50 Mcm2-7.
Data set [6] concerns S. cerevisiae ∆erg6 (UPY675). The experiment in a line: Yeast growth inhibition, 96-well assay, ∆erg6 strain. The data set is classed as cell-based, Saccharomyces cerevisiae. The settings on record: Saccharomyces cerevisiae, read-out: IC50 Yeast.
The next data set concerns pUC19. The experiment in a line: DNA intercalation assay (Topo I-relaxed plasmid). It counts as biochemical. The note with it: 1 mM inhibitor added after plasmid relaxation (Figure 3C). The source says:
To examine this model, we tested our inhibitors in a standard topoisomerase assay. The rationale of this assay is that intercalating compounds will introduce supercoils into a fully relaxed plasmid. Topo I will remove these introduced supercoils, but after quenching and gel electrophoresis the intercalator will diffuse away and produce a detectable compensatory supercoiling increase.

For data set [7], the target named is T3, SsoMcm (Sulfolobus solfataricus Mcm protein) complex (Saccharolobus solfataricus, UniProt Q9UXG1).
T3 sequence (Q9UXG1 1-686): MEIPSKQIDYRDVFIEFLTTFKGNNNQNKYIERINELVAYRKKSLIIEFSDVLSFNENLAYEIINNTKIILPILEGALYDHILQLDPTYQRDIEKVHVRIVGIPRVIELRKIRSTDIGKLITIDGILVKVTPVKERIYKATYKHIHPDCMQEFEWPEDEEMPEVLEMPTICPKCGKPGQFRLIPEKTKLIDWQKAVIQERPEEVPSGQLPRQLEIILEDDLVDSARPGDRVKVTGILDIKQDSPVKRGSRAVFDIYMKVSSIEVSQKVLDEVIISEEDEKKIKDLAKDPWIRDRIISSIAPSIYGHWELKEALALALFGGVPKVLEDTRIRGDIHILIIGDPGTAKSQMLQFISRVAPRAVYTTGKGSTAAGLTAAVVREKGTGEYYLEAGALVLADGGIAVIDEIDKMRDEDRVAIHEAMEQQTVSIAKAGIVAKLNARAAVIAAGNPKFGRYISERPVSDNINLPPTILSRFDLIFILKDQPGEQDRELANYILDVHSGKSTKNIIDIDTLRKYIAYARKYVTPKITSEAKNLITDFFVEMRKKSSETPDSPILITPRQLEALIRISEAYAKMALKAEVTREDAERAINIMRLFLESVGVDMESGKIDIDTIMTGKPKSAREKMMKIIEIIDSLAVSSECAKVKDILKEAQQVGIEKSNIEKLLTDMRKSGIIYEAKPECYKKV
The data set is described as follows: SsoMcm helicase assay. It counts as biochemical. The note with it: 1 mM, 65°C, Figure S3. The protocol:
Helicase assays were performed essentially as described. Synthetic replication forks were prepared by annealing oligos 233 and 235 [IDT (Coralville), oligo 233 5′(T)40[…]; oligo 235 5′ […](T)40] and then filling in the recessed 3′-end with [α32P]dATP and unlabelled dNTPs using Klenow Fragment. Briefly, reactions ([…]) were performed in 1× helicase assay buffer [20 mM Tris/HCl (pH 7.5), 10 mM MgOAc, 20% (v/v) glycerol, 100 μM EDTA and 5 mM DTT (dithiothreitol)] and contained a final concentration of 1 nM fork substrate, 5 mM ATP, 40 mM creatine phosphate, […] creatine kinase, 33 μg/ml BSA. Reactions containing Mcm2-7 and Mcm467 were supplemented with 200 mM potassium glutamate. Reactions containing SsoMcm were incubated at 65°C, those containing T4 gp41 were incubated for 30 min at 37°C, and all other reactions were incubated at 37°C for 1 h. The products were separated by 10% (w/v) native PAGE, the resulting gels dried and the radioactivity quantified using a Fuji FLA-5100 phosphoimager. […] ATP was separated from ADP by PEI (polyethyleneimine) thin layer chromatography, and the ratio of ATP:ADP was quantified using a Fuji FLA-5100 phosphoimager. […] Protein–ssDNA binding was determined with a double filter-binding assay using an ssDNA probe (oligo 826, 5′[…]) that was 5′-radiolabelled using T4 polynucleotide kinase and [γ32P]ATP [16]. […]

The test system of a further data set is RPE-hTERT cells. The data set is described as follows: Human cell viability, MTS method. The note with it: 48 h, value (95% CI). The data set is classed as cell-based. The protocol:
Ciproﬂoxacin is an inhibitor of the Mcm2-7 […]
The viability of human cells was assayed using the MTS method
[1]. Brieﬂy, 1 ×10^5 cells of the human non-tumour cell line RPE-hTERT were plated into each well of a 96-well plate and grown in DMEM: F12 containing 10 % (v/v) FBS in 5 % (v/v) CO2 at 37 ◦ C. The next day, the indicated compounds were titrated into media such that the ﬁnal concentration contained 1 % (v/v)
DMSO. As a negative control, media were also prepared that contained 1 % DMSO but lacked compound. After 48 h, the media was removed and replaced with DMEM lacking phenol red but containing Cell Titer 96 Aqueous One Solution Cell Proliferation
Assay (Promega). After 1 h, the A490 nm was measured using a BioRad iMark Microplate Reader (Hercules). Final data reﬂect the average and standard deviation (S.D.) of three replicates at each compound concentration. […]
For orientation: Tetrazolium assays rely on reduction of a dye to a coloured formazan, in cell work by metabolically active cells.

A further data set concerns the target T4, SV40 large TAg (Simian virus 40, UniProt P03070).
T4 construct: made in house
The experiment in a line: Steady-state ATP hydrolysis by TAg. The data set is classed as biochemical, SV40 (simian virus 40). The settings on record: 1 mM compound, 100 nM hexamer.

Data set [8] deals with T1, Mcm467. The experiment in a line: ssDNA double filter-binding assay, Mcm467. The settings on record: 1 mM compound, 150 nM helicase.
Data set [9] relates to T2, Mcm2-7. The data set is described as follows: ssDNA double filter-binding assay, Mcm2-7. More on the design: species or system Saccharomyces cerevisiae. The note with it: 1 mM compound, 150 nM helicase.
A further data set deals with Wheat Germ Topo I. The experiment in a line: Topo I activity inhibition assay. The settings on record: 1 mM inhibitor added together with Topo I (Figure 3D).
The next data set can be described thus: Solubility in assay. The settings on record: helicase assay conditions.

T1 sequence (P30665 whole entry): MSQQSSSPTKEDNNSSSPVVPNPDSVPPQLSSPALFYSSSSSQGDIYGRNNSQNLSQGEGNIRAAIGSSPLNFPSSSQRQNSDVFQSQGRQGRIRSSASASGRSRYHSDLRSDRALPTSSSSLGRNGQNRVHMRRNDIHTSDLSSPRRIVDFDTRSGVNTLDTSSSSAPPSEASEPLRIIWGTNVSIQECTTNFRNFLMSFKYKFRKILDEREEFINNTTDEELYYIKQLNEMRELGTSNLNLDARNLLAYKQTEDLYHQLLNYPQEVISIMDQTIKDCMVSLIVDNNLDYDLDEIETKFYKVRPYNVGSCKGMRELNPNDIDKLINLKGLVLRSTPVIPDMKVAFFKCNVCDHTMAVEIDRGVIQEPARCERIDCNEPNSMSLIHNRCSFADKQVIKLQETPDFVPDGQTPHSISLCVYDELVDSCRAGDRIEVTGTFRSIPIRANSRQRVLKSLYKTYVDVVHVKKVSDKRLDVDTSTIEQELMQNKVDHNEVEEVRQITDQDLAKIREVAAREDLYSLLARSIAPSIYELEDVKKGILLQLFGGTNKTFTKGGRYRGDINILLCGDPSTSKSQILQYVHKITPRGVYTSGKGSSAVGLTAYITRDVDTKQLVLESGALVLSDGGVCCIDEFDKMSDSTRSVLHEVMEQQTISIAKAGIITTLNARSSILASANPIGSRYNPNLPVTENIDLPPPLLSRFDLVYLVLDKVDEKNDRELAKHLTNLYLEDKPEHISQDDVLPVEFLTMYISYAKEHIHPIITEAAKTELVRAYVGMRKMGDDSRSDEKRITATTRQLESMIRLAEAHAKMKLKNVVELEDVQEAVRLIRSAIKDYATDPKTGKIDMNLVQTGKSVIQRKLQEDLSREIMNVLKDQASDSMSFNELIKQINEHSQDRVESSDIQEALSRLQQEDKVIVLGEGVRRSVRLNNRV
T1 sequence (P53091 whole entry): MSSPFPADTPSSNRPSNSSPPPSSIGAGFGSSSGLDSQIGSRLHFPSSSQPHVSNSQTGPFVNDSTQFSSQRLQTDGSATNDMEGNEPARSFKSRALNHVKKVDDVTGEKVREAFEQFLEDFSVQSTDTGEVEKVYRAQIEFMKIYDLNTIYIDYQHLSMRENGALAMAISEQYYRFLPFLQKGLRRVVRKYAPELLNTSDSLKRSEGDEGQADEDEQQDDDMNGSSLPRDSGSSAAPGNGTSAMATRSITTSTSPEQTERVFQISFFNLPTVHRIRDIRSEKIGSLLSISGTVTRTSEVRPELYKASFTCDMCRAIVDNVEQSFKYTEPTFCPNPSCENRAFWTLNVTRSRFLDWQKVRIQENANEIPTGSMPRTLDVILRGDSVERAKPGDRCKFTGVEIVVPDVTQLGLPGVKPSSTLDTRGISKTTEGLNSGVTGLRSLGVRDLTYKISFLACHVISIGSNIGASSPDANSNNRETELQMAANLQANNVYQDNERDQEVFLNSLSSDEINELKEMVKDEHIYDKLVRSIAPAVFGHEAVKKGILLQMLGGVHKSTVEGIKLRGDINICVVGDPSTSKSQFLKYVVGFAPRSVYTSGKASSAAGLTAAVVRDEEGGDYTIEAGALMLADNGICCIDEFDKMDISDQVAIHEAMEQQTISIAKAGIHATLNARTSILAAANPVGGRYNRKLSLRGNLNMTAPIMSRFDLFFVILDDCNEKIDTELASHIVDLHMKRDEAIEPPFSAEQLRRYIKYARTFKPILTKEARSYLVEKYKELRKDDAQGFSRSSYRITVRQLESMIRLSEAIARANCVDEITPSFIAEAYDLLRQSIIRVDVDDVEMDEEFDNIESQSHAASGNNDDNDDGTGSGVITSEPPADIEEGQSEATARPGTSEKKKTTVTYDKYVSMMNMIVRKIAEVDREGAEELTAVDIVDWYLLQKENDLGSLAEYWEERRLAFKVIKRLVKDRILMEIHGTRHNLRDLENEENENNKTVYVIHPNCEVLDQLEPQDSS
T1 sequence (P38132 whole entry): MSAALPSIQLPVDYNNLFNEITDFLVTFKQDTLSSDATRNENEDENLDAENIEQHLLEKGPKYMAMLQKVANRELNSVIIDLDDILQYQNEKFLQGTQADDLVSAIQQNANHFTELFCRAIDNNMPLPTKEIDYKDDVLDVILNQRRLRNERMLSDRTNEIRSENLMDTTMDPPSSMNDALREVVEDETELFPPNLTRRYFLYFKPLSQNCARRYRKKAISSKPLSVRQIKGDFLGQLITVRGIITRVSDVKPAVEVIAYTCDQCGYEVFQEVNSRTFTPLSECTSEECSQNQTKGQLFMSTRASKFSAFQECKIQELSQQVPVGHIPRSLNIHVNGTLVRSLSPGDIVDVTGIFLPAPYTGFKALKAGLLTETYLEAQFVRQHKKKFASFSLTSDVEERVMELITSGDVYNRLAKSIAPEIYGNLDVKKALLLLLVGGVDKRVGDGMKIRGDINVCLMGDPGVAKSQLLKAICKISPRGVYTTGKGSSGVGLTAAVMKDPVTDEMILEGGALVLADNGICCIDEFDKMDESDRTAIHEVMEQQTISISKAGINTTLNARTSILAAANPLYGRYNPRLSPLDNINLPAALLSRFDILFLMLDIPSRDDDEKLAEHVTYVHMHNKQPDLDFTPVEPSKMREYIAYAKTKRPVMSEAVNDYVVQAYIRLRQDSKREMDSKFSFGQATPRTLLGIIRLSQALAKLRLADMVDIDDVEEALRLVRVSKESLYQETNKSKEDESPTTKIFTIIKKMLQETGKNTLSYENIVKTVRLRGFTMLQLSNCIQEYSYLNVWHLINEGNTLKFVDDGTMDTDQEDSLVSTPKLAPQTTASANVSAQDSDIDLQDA
T4 sequence (P03070 whole entry): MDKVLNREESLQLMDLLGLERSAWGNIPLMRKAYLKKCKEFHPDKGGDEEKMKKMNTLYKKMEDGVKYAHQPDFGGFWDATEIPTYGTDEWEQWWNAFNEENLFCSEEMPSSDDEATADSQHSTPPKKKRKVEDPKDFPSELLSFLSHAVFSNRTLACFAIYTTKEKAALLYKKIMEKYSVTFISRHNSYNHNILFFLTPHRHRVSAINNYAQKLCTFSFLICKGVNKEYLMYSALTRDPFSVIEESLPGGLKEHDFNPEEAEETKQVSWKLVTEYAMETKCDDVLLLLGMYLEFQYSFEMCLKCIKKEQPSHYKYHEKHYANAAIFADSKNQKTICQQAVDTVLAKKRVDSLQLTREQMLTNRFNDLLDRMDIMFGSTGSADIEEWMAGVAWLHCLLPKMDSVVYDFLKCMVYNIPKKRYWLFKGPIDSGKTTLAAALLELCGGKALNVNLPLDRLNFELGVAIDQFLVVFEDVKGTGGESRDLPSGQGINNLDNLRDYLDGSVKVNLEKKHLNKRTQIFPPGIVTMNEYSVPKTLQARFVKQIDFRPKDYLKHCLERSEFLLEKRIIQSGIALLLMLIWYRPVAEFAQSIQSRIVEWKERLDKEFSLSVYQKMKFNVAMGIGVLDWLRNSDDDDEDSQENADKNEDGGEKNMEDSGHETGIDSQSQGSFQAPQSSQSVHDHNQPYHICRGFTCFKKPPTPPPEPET
Sequence of SV40 large TAg (T-antigen) (P03070 whole entry, looked up): as the sequence (P03070 whole entry) above

Turning to `CSc1c(N2CCC(C(C)N)C2)ccc2c(=O)c(C(=O)O)cn(C3CC3)c12` (stereo not drawn) [compound 314850], the IC50 in data set [1] is above 1000 µM; at Mcm467 [3] it was 707 µM; at Mcm2-7 [5], 261 µM; in [6] (∆erg6 strain, growth over 24 h, value (95% CI)), 520 µM; with RPE-hTERT cells, 340 µM; with RPE-hTERT cells (Homo sapiens) it was 500 to 700 µM. Besides, at Mcm467 [2], the “effect on ATP hydrolysis of Mcm467” value was “essentially no inhibition”. Moreover, the “effect on ATP hydrolysis of Mcm2-7” value in the data set on Mcm2-7 [4] is given as “essentially no inhibition”. For the same compound, the DNA intercalation entry with pUC19 is given as “little or no intercalation”. Also, in data set [7], the “inhibition of SsoMcm helicase” value was “effectively inhibited”. In addition, the “effect on ATP hydrolysis of TAg” value at SV40 large TAg is “essentially no inhibition”.
Take `CC1=C(C(=O)OCc2ccccc2)C(c2ccc(-c3ccccc3)cc2)NC(=O)N1CCCCCC(=O)O` (stereo not drawn) [MAL2-11b, reference compound]: the results for the IC50 (in [1]; at Mcm467 [3]; on Mcm2-7 [5]) were 192 µM, 112 µM and 96 µM, respectively. In addition, the “effect on ATP hydrolysis of Mcm467” value at Mcm467 [2] is listed as “completely inhibits”. For the same compound, the “effect on ATP hydrolysis of Mcm2-7” value in the data set with Mcm2-7 [4] was “completely inhibits”. The “effect on ssDNA binding of Mcm467” value at Mcm467 [8] is reported as “inhibit”. Further, in the data set with pUC19, the DNA intercalation entry was “little or no intercalation”. In the data set with Mcm2-7 [9], the “effect on ssDNA binding of Mcm2-7” value is “inhibit”. Besides, the “Topo I inhibition” value with Wheat Germ Topo I is “Topo I inhibitor”. The “effect on ATP hydrolysis of TAg” value on SV40 large TAg is on record as “completely inhibits”.
For `CCn1cc(C(=O)O)c(=O)c2c(N)c(F)c(N3CCNCC3)c(F)c21` [compound 271327], the solubility result in the data set “Solubility in assay” is given as “limited solubility”. In addition, the IC50 in data set [1] is above 1000 µM; at Mcm467 [3], 460 µM; on Mcm2-7 [5] it was 361 µM; in [6] (24 h), 700 µM. In addition, at Mcm467 [2], the “effect on ATP hydrolysis of Mcm467” value is “essentially no inhibition”. Moreover, the “effect on ATP hydrolysis of Mcm2-7” value in the data set with Mcm2-7 [4] is “essentially no inhibition”. Besides, the DNA intercalation entry in the data set on pUC19 is given as “little or no intercalation”. The “effect on ATP hydrolysis of TAg” value at SV40 large TAg is given as “essentially no inhibition”.
